According to article PMC5316403, “A multicenter assessment of single-cell models aligned to standard measures of cell health for prediction of acute hepatotoxicity” (Archives of Toxicology, 2016):
Where two headings read alike, the source gives them in different places.

Columns and labels:
[1] = parameters: method as in references provided in Table 4; settings: therapeutic concentrations, used to calculate EC50/Cmax; ref references provided in Table 4; cited from earlier work
[2] = test system: man; settings: cited from earlier work
[3] = test system: Upcyte hepatocytes; test: Cytotoxicity (intracellular ATP, CellTiter Glo) in Upcyte hepatocytes; format: cell-based, human; settings: Upcyte cells, 24 or 72 h, all test sites, up to highest dose
Procedure: The cells were then centrifuged (90×g; 5 min; room temperature) and resuspended in fresh Upcyte High Performance Medium (Medicyte, Heidelberg, Germany). Cell number and viability were determined via the trypan blue exclusion method, and the cells were seeded at 18,750 cells/well in white/clear bottom 96-well plates (Beckton Dickinson, New Jersey, USA). After seeding, the cells were incubated for 72 h (37 °C; 5 % CO2; 95 % air) without additional medium change prior to compound treatment.
The compound concentrations used were chosen as representative for each compound when conducting an in vitro safety assessment study. […] Stock aliquots were stored at −20 °C and only thawed once. […]
(§1) The CellTiter Glo assay kit (Promega, Madison, WI, USA) was used to determine the ATP content in the cells after exposure to the thirteen compounds for 24 or 72 h. […] The supernatant samples were transferred into opaque flat-bottomed 96-well plates (Greiner-Bio-One, Frickenhausen, Germany) and the luminescence measured.
(§2) Cell viability was determined as the percentage of the fluorescent resorufin after incubation with resazurin in the treated cells compared with vehicle control or the percentage of ATP detected in the treated cells compared with vehicle control. Individual EC50 values from all participants were calculated using GraphPad Prism 6 (version 6.03) at one partner site. […]

[4] = test system: HepG2/ECACC cells; test: Cytotoxicity (intracellular ATP, CellTiter Glo) in HepG2/ECACC cells; format: cell-based, human; settings: 24 or 72 h, all test sites, up to highest dose
Procedure: A specific clone of HepG2 cells was purchased from the European Collection of Cell Cultures (ECACC). The cells were cultivated and low passage frozen stocks were generated and banked by one MIP-DILI partner designated as the cell bank. The cells were distributed to the relevant MIP-DILI partners. […] Cell number and viability were determined using the trypan blue exclusion method, and the cells were plated at a seeding density of 20,000 cells/well in BD Biocoat Collagen I 96-well plates (Beckton Dickinson, New Jersey, USA). […]
as §1, §2

[5] = test system: primary human hepatocytes (PHH); test: Cytotoxicity (intracellular ATP, CellTiter Glo) in primary human hepatocytes; format: cell-based; settings: cryopreserved PHH, 24 or 72 h, all test sites, up to highest dose
Procedure: Cryopreserved PHH from five donors were provided by KaLy-Cell (Plobsheim, France). […] Cell number and viability were determined by the trypan blue exclusion method, and the cells were plated at a seeding density of 70,000 cells/well of a KaLy-Cell home-coated type I rat tail collagen (10 µg/well) 96-well plate. […]
as §1, §2

[6] = test system: cryopreserved HepaRG cells; test: Cytotoxicity (intracellular ATP, CellTiter Glo) in cryopreserved HepaRG cells; format: cell-based, human; settings: 24 or 72 h, all test sites, up to highest dose
Procedure: Differentiated cryopreserved HepaRG cells were purchased from Biopredic International (Saint-Gregoire, France). The cells were thawed in Thawing/Plating Medium [Williams’ Medium E supplemented with 1 % penicillin/streptomycin, 1 % L-Glutamine, 10 % FCS and 12.5 % ADD670 cocktail (BioPredic International, Saint-Gregoire, France; proprietary medium composition)], centrifuged (500×g; 5 min; room temperature) and then resuspended in fresh Thawing/Plating Medium. After the addition of the ADD670 cocktail, the final DMSO concentration in the Thawing/Plating Medium was 0.5 %. Cell number and viability were determined by the trypan blue exclusion method, and the cells were plated at a seeding density of 72,000 cells/well in white/clear bottom 96-well plates (Beckton Dickinson, New Jersey, USA). […]
as §1
Cell viability was determined as the percentage of the fluorescent resorufin after incubation with resazurin in the treated cells compared with vehicle control or the percentage of ATP detected in the treated cells compared with vehicle control. […]

[7] = reported to cause hepatotoxicity in man or not, ref references in Table 4

Row | SMILES | Cmax [1] | Hepatotoxic/non-hepatotoxic [2, 7] | also measured
1 | Cc1ccc(C(=O)c2cc(O)c(O)c([N+](=O)[O-])c2)cc1 [Tolcapone] | 27800 nM | Hepatotoxic | –
2 | COc1ccccc1Oc1c(NS(=O)(=O)c2ccc(C(C)(C)C)cc2)nc(-c2ncccn2)nc1OCCO [Bosentan] | – | Hepatotoxic | –
3 | CCc1ccc(CCOc2ccc(CC3SC(=O)NC3=O)cc2)nc1 (stereo not drawn) [Pioglitazone] | 2670 nM | Non-hepatotoxic | –
4 | CCc1nn(CCCN2CCN(c3cccc(Cl)c3)CC2)c(=O)n1CCOc1ccccc1 [Nefazodone] | 859 nM | Hepatotoxic | –
5 | C1CCC(C(CC2CCCCN2)C2CCCCC2)CC1 (stereo not drawn) [Perhexiline] | 1520 nM | Hepatotoxic | –
6 | CN(C)C(=N)N=C(N)N [Metformin] | 7740 nM | – | –
7 | CCOC(=O)CN[C@@H](C(=O)N1CC[C@H]1C(=O)NCc1ccc(/C(N)=N\O)cc1)C1CCCCC1 [Ximelagatran] | – | – | toxicity (cell viability) [3]: no toxicity was detected even at the highest doses; toxicity (cell viability) [4]: no toxicity was detected even at the highest doses; toxicity (cell viability) [5]: no toxicity was detected even at the highest doses; toxicity (cell viability) [6]: no toxicity was detected even at the highest doses
8 | O=C(O)Cc1ccccc1Nc1c(Cl)cccc1Cl [Diclofenac] | – | – | Hepatotoxic/non-hepatotoxic ([2]; in vivo): Hepatotoxic
9 | CC(=O)Nc1ccc(O)cc1 [Paracetamol] | – | Hepatotoxic | –
10 | Cc1c(C)c2c(c(C)c1O)CCC(C)(COc1ccc(CC3SC(=O)NC3=O)cc1)O2 (stereo not drawn) [Troglitazone] | 6390 nM | Hepatotoxic | –
11 | CCN(CC)C(=O)/C(C#N)=C/c1cc(O)c(O)c([N+](=O)[O-])c1 [Entacapone] | 1500 nM | Non-hepatotoxic | –
12 | O=C1CC2(CCCC2)CC(=O)N1CCCCN1CCN(c2ncccn2)CC1 [Buspirone] | – | Non-hepatotoxic | –
